Results on 12 compounds are retold here after ChEMBL document CHEMBL1201862, “PubChem BioAssay data set” (2004).

The structures appear in SMILES notation.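 Method: 48-hour compound exposure of cells in 96-well plates, five concentrations, linear interpolation of endpoints. At the GI50, growth is halved.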 Activity calls are given as the source filed them. Cut-off read from the data, not from the text of the source: active = GI50 up to about 1.1 µM and inactive = higher.

Experiment in all cases: growth of human tumour cells (NCI), 48 h
Assay [1] has as its system NCI-H460.
Assay [2] has as its system 786-0.
The subject of assay [3] is LOX IMVI.
Assay [4] has as its system EKVX.
Assay [5] concerns SNB-19.
Assay [6] deals with SR.
The test system of assay [7] is MOLT-4.
Assay [8] deals with COLO 205.
Assay [9] deals with HCC 2998.
Assay [10] deals with CCRF-CEM.
Assay [11] concerns Malme-3M.
For assay [12], the system named is M19-MEL.
Assay [13] has as its system RPMI-8226.
In assay [14] the test system is T47D.
Assay [15] has as its system KM12.
Assay [16] relates to MDA-N.
The subject of assay [17] is IGROV-1.
The subject of assay [18] is OVCAR-4.
The subject of assay [19] is NCI-H522.
Assay [20] has as its system SK-MEL-5.

Turning to `Nc1nc(O)c2c(ncn2CCO)n1`, the GI50 in assay [1], in [2], in assay [3], in [4], in [5] and in assay [6] was > 100 µM (inactive) in each case. The GI50 in assay [7], in [8], in assay [9], in assay [10], in [11] and in assay [12] was > 100 µM (inactive) each time. Further, in assay [13], the GI50 was > 100 µM (inactive).
In the case of `CCC(=O)Nc1ccc(N2C(=O)C(Cl)C2c2ccc(SC)cc2)cc1` (configuration not stated), the GI50 is 32.8 µM (inactive) in [1]; 73.6 µM (inactive) in assay [14]; 57.3 µM (inactive) in assay [2]; 40.1 µM (inactive) in assay [3]; 52.7 µM (inactive) in assay [4]; > 100 µM (inactive) in [5]. Moreover, the GI50 in assay [15] is > 100 µM (inactive); in assay [16], > 100 µM (inactive); in assay [17], 94.2 µM (inactive); in assay [6], 40.6 µM (inactive); in [18], 33.5 µM (inactive); in assay [7], 67.8 µM (inactive). Further, the GI50 in [8] is 40.4 µM (inactive); in [9], 30.9 µM (inactive); in assay [10] it was 26.9 µM (inactive); in [11], > 100 µM (inactive); in [19], 41 µM (inactive); in assay [20], 20.7 µM (inactive). Also, the GI50 in [13] was 32.5 µM (inactive).
As to `O=c1c2cccnc2ncn1CCN1CCCCC1`, the GI50 in [1], in [2], in assay [3], in assay [4], in [5] and in assay [15] was > 100 µM (inactive) in each case. The GI50 in assay [17], in assay [6], in [18], in assay [7], in assay [8] and in [9] was > 100 µM (inactive) in each case. In addition, the GI50 in assay [10], in [11], in assay [12], in assay [19] and in assay [20] was > 100 µM (inactive) in each case.
Consider `Cn1ccc(=NS(=O)(=O)c2ccccc2)cc1`, for which the GI50 in assay [1], in [2], in assay [3], in assay [4], in assay [5] and in assay [15] was > 100 µM (inactive) in each case. In addition, the GI50 in assay [17], in assay [7], in [8], in assay [9], in [10] and in assay [11] was > 100 µM (inactive) each time. For the same compound, the GI50 in assay [12], in [19], in assay [20] and in [13] was > 100 µM (inactive) throughout.
Take `COC(=O)/C(C#N)=C1\CCc2ccccc21`: the GI50 in assay [1], in assay [2], in [3], in assay [4], in [5] and in assay [15] was > 100 µM (inactive) each time. The GI50 in assay [17], in assay [18], in assay [7], in [8], in assay [9] and in assay [10] was > 100 µM (inactive) in each case. Moreover, the GI50 in assay [11], in assay [12], in [19], in assay [20] and in [13] was > 100 µM (inactive) each time.
Regarding `CC(=O)Nc1ccc(S(=O)(=O)c2nnc(NC(C)=O)s2)cc1`, the GI50 in [1], in [14], in assay [2], in assay [3], in assay [4] and in assay [5] was > 100 µM (inactive) each time. Further, the GI50 in assay [15], in assay [16], in [17], in assay [6], in [18] and in assay [7] was > 100 µM (inactive) in each case. In addition, the GI50 in [8] was 0.215 µM (active); in [9] it was > 100 µM (inactive); in [10], > 100 µM (inactive); in assay [11], > 100 µM (inactive); in assay [19], > 100 µM (inactive); in assay [20], > 100 µM (inactive). For the same compound, the GI50 in assay [13] is > 100 µM (inactive).
Take `CC1NS(=O)(=O)N(C)C1=O` (configuration not stated): the GI50 was > 10 µM (inactive) in assay [2]; > 100 µM (inactive) in assay [3]; > 100 µM (inactive) in assay [15]; > 100 µM (inactive) in assay [17]; > 100 µM (inactive) in assay [6]; > 100 µM (inactive) in assay [18]. Further, the GI50 in assay [7], in assay [9], in [10], in assay [11], in assay [12] and in assay [19] was > 100 µM (inactive) each time. Moreover, the GI50 in assay [20] and in assay [13] was > 100 µM (inactive) throughout.
For `CC(C(=O)c1ccc(O)cc1)C1(O)C(=O)Nc2c(Cl)cc(Cl)cc21` (configuration not stated), the GI50 in [1] was > 86.1 µM (inactive); in [2], 48.1 µM (inactive); in [3], 24.8 µM (inactive); in assay [4], 49.3 µM (inactive); in assay [5], > 77.6 µM (inactive); in [15] it was > 87.3 µM (inactive). For the same compound, the GI50 in assay [17] was > 100 µM (inactive); in assay [18], 21.7 µM (inactive); in [7], 28.9 µM (inactive); in assay [8] it was > 100 µM (inactive); in assay [9] it was > 100 µM (inactive); in [10], 26.6 µM (inactive). Besides, the GI50 in assay [11] was > 100 µM (inactive); in assay [12], 20.6 µM (inactive); in assay [19], 23.1 µM (inactive); in [20], 17.1 µM (inactive); in assay [13] it was 25.6 µM (inactive).
As for `COc1ccc2nc3c(C(=O)NCCN(C)C)cccc3nc2c1`, the GI50 was 7 µM (inactive) in [2]; 3.34 µM (inactive) in assay [3]; 3.86 µM (inactive) in [4]; 6.21 µM (inactive) in assay [5]; 5.98 µM (inactive) in [15]; 5.61 µM (inactive) in assay [17]. The GI50 in assay [18] was 6.58 µM (inactive); in [7] it was 3.63 µM (inactive); in [8] it was 4.28 µM (inactive); in [9], 6.76 µM (inactive); in assay [10], 5.55 µM (inactive); in assay [12], 5.05 µM (inactive). For the same compound, the GI50 in assay [20] is 4.31 µM (inactive).
As for `C#CCOCn1cnc2c(Sc3c([N+](=O)[O-])ncn3C)ncnc21`, the GI50 in assay [1], in assay [2], in assay [3], in assay [4], in assay [5] and in [15] was > 100 µM (inactive) throughout. The GI50 was > 100 µM (inactive) in assay [17]; 87.5 µM (inactive) in assay [18]; > 100 µM (inactive) in assay [8]; > 100 µM (inactive) in assay [9]; 97.7 µM (inactive) in [10]; > 100 µM (inactive) in [11]. The GI50 in [12] was > 100 µM (inactive); in assay [19] it was 48.3 µM (inactive); in assay [20], > 100 µM (inactive); in assay [13], > 100 µM (inactive).
Regarding `Cc1ccc(O)c(C(=O)CCCC(=O)c2cc(C)ccc2O)c1`, the GI50 was > 100 µM (inactive) in [1]; 38.3 µM (inactive) in assay [2]; 57.1 µM (inactive) in assay [3]; > 100 µM (inactive) in [4]; 46.1 µM (inactive) in assay [5]; > 100 µM (inactive) in assay [15]. Moreover, the GI50 is > 100 µM (inactive) in [17]; 74.5 µM (inactive) in assay [18]; > 100 µM (inactive) in [7]; > 100 µM (inactive) in [8]; 0.152 µM (active) in assay [9]; > 100 µM (inactive) in assay [10]. In addition, the GI50 in [11] is > 100 µM (inactive); in [12], > 100 µM (inactive); in [19], 63.8 µM (inactive); in [20] it was > 100 µM (inactive); in [13], > 100 µM (inactive).
Regarding `CC(C)C[C@H](NC(=O)[C@H](Cc1ccc(F)cc1)NC(=O)c1ccccn1)B(O)O`, the GI50 in assay [1], in assay [14], in assay [2], in [3], in assay [4] and in assay [5] was < 0.01 µM (active) in each case. The GI50 in assay [15], in assay [16], in [17], in assay [6], in assay [18] and in assay [7] was < 0.01 µM (active) in each case. Moreover, the GI50 in assay [8], in [9], in assay [10], in assay [11], in [19] and in assay [20] was < 0.01 µM (active) throughout. Also, in [13], the GI50 was < 0.01 µM (active).
